# In patent US11439707B2, “Hypocrellin derivative substituted both in a peri-position and in 2-position by amino, preparation method, and application thereof” (priority 2017, dated 2022):
# Columns and labels:
# [1] = absorption spectrum (maximum absorption wavelength, molar extinction coefficient); format: physicochemical
# [2] = singlet oxygen efficiency test, reference rose bengal; format: physicochemical
smiles,measurement,setting,value
COCCOCCOCCOCCOCCOCCOCCC(=O)OC1CCC(Nc2c(O)c3c(=O)cc(OC)c4c5c(OC)cc(=O)c6c(NC7CCC(OC(=O)CCOCCOCCOCCOCCOCCOCCOC)C7)c(OC)c7c(c(c2C=C(C)C7C(C)=O)c34)c65)C1 (stereo not drawn) [HB-20b-PEG6],maximum absorption wavelength,[1],624 nm
same,molar extinction coefficient,[1],"31,000 M^−1cm^−1"
same,singlet oxygen yield,[2],28%
COc1c(NCCC(=O)O)c2c(=O)cc(OC)c3c4c(OC)cc(=O)c5c(O)c(NCCC(=O)O)c6c(c(c1C(C(C)=O)C(C)=C6)c23)c54 (stereo not drawn) [HB-10b],maximum absorption wavelength,[1],615 nm
same,molar extinction coefficient,[1],"31,500 M^−1cm^−1"
same,singlet oxygen yield,[2],34%
COCCOCCOCCOCCOCCOCCOCCOCCOCCOCCOCCOCCOCCC(=O)OCCNc1c2c3c4c(c(OC)c(=O)c5c(O)cc(OC)c(c6c(OC)cc(NCCOC(=O)CCOCCOCCOCCOCCOCCOCCOCCOCCOCCOCCOCCOCCOC)c(c1=O)c63)c54)C(C(C)=O)C(C)=C2 (stereo not drawn) [HB-2c-PEG12],maximum absorption wavelength,[1],626 nm
same,molar extinction coefficient,[1],"32,500 M^−1cm^−1"
same,singlet oxygen yield,[2],36%
COc1c2c3c4c(c(NO)c(=O)c5c(O)cc(OC)c(c6c(OC)cc(NO)c(c1=O)c63)c54)C=C(C)C2 [HC-37d],maximum absorption wavelength,[1],620 nm
same,molar extinction coefficient,[1],"32,000 M^−1cm^−1"
same,singlet oxygen yield,[2],33%
COc1c2c3c4c(c(NCCNCCOCCOCCOCCOCCO)c(=O)c5c(NCCNCCOCCOCCOCCOCCO)cc(OC)c(c6c(OC)cc(O)c(c1=O)c63)c54)C=C(C)C2C(C)=O (stereo not drawn) [HB-5c-PEG4],maximum absorption wavelength,[1],628 nm
same,molar extinction coefficient,[1],"31,500 M^−1cm^−1"
same,singlet oxygen yield,[2],35%
COc1c(NCC2CCC(C(=O)NCCCC[P+](c3ccccc3)(c3ccccc3)c3ccccc3)CC2)c2c(=O)cc(OC)c3c4c(OC)cc(=O)c5c(O)c(NCC6CCC(C(=O)NCCCC[P+](c7ccccc7)(c7ccccc7)c7ccccc7)CC6)c6c(c(c1CC(C)=C6)c23)c54 (stereo not drawn) [HC-13b-NH—C4-PPh3+],maximum absorption wavelength,[1],626 nm
same,molar extinction coefficient,[1],"30,500 M^−1cm^−1"
same,singlet oxygen yield,[2],34%
COc1c2c3c4c(c(NCc5cccc[n+]5C)c(=O)c5c(O)cc(OC)c(c6c(OC)cc(NCc7cccc[n+]7C)c(c1=O)c63)c54)C=C(C)C2C(C)=O (stereo not drawn) [HB-38d-N^+],maximum absorption wavelength,[1],626 nm
same,molar extinction coefficient,[1],"21,500 M^−1cm^−1"
same,singlet oxygen yield,[2],20%
COc1c(NCCS(=O)(=O)OC)c2c(=O)cc(OC)c3c4c(OC)cc(=O)c5c(O)c(NCCS(=O)(=O)OC)c6c(c(c1C(C(C)=O)C(C)=C6)c23)c54 (stereo not drawn) [HB-12b],maximum absorption wavelength,[1],621 nm
same,molar extinction coefficient,[1],"22,500 M^−1cm^−1"
same,singlet oxygen yield,[2],22%
CCNc1c(NC2CCCC2)c2c(=O)cc(OC)c3c4c(OC)cc(=O)c5c(O)c(OC)c6c(c(c1C=C(C)C6C(C)=O)c23)c54 (stereo not drawn) [HB-44a],maximum absorption wavelength,[1],628 nm
same,molar extinction coefficient,[1],"21,500 M^−1cm^−1"
same,singlet oxygen yield,[2],20%
CCCNc1c(NCCC)c2c(=O)cc(OC)c3c4c(OC)cc(=O)c5c(O)c(OC)c6c(c(c1C=C(C)C6C(C)=O)c23)c54 (stereo not drawn) [HB-33a],maximum absorption wavelength,[1],618 nm
same,molar extinction coefficient,[1],"32,500 M^−1cm^−1"
same,singlet oxygen yield,[2],30%
COCCOC(=O)CCCCCNc1c(NCCCCCC(=O)OCCOC)c2c(=O)cc(OC)c3c4c(OC)cc(=O)c5c(O)c(OC)c6c(c(c1C=C(C)C6)c23)c54 [HC-9a-PEG1],maximum absorption wavelength,[1],621 nm
same,molar extinction coefficient,[1],"30,000 M^−1cm^−1"
same,singlet oxygen yield,[2],32%
COCCOCCOCCOCCOCCOCCOCCC(=O)OCC1(Nc2c3c4c5c(c(OC)c(=O)c6c(O)cc(OC)c(c7c(OC)cc(NC8(COC(=O)CCOCCOCCOCCOCCOCCOCCOC)CC8)c(c2=O)c74)c65)C(C(C)=O)C(C)=C3)CC1 (stereo not drawn) [HB-35c-PEG6],maximum absorption wavelength,[1],630 nm
same,molar extinction coefficient,[1],"33,500 M^−1cm^−1"
same,singlet oxygen yield,[2],38%
COC(=O)C1CCC(CNc2c(NCC3CCC(C(=O)OC)CC3)c3c(=O)cc(OC)c4c5c(OC)cc(=O)c6c(O)c(OC)c7c(c(c2C=C(C)C7C(C)=O)c34)c65)CC1 (stereo not drawn) [HB-13a-AcE],maximum absorption wavelength,[1],625 nm
same,molar extinction coefficient,[1],"27,000 M^−1cm^−1"
same,singlet oxygen yield,[2],25%
COc1c(NCCC2CCC(O)CC2)c2c(=O)cc(OC)c3c4c(OC)cc(=O)c5c(O)c(NCCC6CCC(O)CC6)c6c(c(c1C(C(C)=O)C(C)=C6)c23)c54 (stereo not drawn) [HB-18b],maximum absorption wavelength,[1],621 nm
same,molar extinction coefficient,[1],"24,500 M^−1cm^−1"
same,singlet oxygen yield,[2],21%
COC(=O)C1CCC(CNc2c3c4c5c(c(OC)c(=O)c6c(NCC7CCC(C(=O)OC)CC7)cc(OC)c(c7c(OC)cc(O)c(c2=O)c74)c65)C(C(C)=O)C(C)=C3)CC1 (stereo not drawn) [HB-13d-AcE],maximum absorption wavelength,[1],623 nm
same,molar extinction coefficient,[1],"28,000 M^−1cm^−1"
same,singlet oxygen yield,[2],25%
CCCCCCNc1c(NCCCCCC)c2c(=O)cc(OC)c3c4c(OC)cc(=O)c5c(O)c(OC)c6c(c(c1C=C(C)C6)c23)c54 [HC-34a],maximum absorption wavelength,[1],625 nm
same,molar extinction coefficient,[1],"31,500 M^−1cm^−1"
same,singlet oxygen yield,[2],30%
COc1c(O)c2c(=O)cc(OC)c3c4c(OC)cc(=O)c5c(NCCCC(=O)NCC[N+](C)(C)C)c(NCCCC(=O)NCC[N+](C)(C)C)c6c(c(c1CC(C)=C6)c23)c54 [HC-8a-NH—C2-N^+],maximum absorption wavelength,[1],622 nm
same,molar extinction coefficient,[1],"30,000 M^−1cm^−1"
same,singlet oxygen yield,[2],29%
COCCOCCOCCOCCOCCOCCOCCC(=O)N1CCC(CNc2c(O)c3c(=O)c(Br)c(OC)c4c5c(OC)cc(=O)c6c(NCC7CCN(C(=O)CCOCCOCCOCCOCCOCCOCCOC)CC7)c(OC)c7c(c(c2C=C(C)C7C(C)=O)c34)c65)CC1 (stereo not drawn) [HB-31b-Br-PEG6],maximum absorption wavelength,[1],624 nm
same,molar extinction coefficient,[1],"31,500 M^−1cm^−1"
same,singlet oxygen yield,[2],31%
COc1c2c3c4c(c(NCCCS(=O)(=O)O)c(=O)c5c(NCS(=O)(=O)O)cc(OC)c(c6c(OC)cc(O)c(c1=O)c63)c54)C=C(C)C2 [HC-45c],maximum absorption wavelength,[1],627 nm
same,molar extinction coefficient,[1],"22,000 M^−1cm^−1"
same,singlet oxygen yield,[2],21%
CCCNc1c2c3c4c(c(OC)c(=O)c5c(O)cc(OC)c(c6c(OC)cc(NCCC)c(c1=O)c63)c54)C(C(C)=O)C(C)=C2 (stereo not drawn) [HB-33c],maximum absorption wavelength,[1],618 nm
same,molar extinction coefficient,[1],"34,500 M^−1cm^−1"
same,singlet oxygen yield,[2],35%
COc1c(NCCOC(=O)N2CC(=O)NC(=O)C2)c2c(=O)cc(OC)c3c4c(OC)cc(=O)c5c(O)c(NCCOC(=O)N6CC(=O)NC(=O)C6)c6c(c(c1C(C(C)=O)C(C)=C6)c23)c54 (stereo not drawn) [HB-40b],maximum absorption wavelength,[1],624 nm
same,molar extinction coefficient,[1],"31,500 M^−1cm^−1"
same,singlet oxygen yield,[2],34%
COCCOCCOCCOCCOCCOCCOC(=O)CCCNc1c(O)c2c(=O)cc(OC)c3c4c(OC)cc(=O)c5c(NCCCC(=O)OCCOCCOCCOCCOCCOCCOC)c(OC)c6c(c(c1C=C(C)C6)c23)c54 [HC-8b-PEG6],maximum absorption wavelength,[1],624 nm
same,molar extinction coefficient,[1],"30,000 M^−1cm^−1"
same,singlet oxygen yield,[2],32%
CCNNc1c2c3c4c(c(OC)c(=O)c5c(O)cc(OC)c(c6c(OC)cc(NNCC)c(c1=O)c63)c54)C(C(C)=O)C(C)=C2 (stereo not drawn) [HB-36c],maximum absorption wavelength,[1],621 nm
same,molar extinction coefficient,[1],"33,500 M^−1cm^−1"
same,singlet oxygen yield,[2],35%
COc1c2c3c4c(c(NC5CCC(C(=O)O)CC5)c(=O)c5c(NC6CCC(C(=O)O)CC6)cc(OC)c(c6c(OC)cc(O)c(c1=O)c63)c54)C=C(C)C2C(C)=O (stereo not drawn) [HB-14c],maximum absorption wavelength,[1],621 nm
same,molar extinction coefficient,[1],"28,000 M^−1cm^−1"
same,singlet oxygen yield,[2],26%
COc1c(O)c2c(=O)cc(OC)c3c4c(OC)cc(=O)c5c(NC6CCCCC6C(=O)O)c(NC6CCCCC6C(=O)O)c6c(c(c1C(C(C)=O)C(C)=C6)c23)c54 (stereo not drawn) [HB-16a],maximum absorption wavelength,[1],620 nm
same,molar extinction coefficient,[1],"25,500 M^−1cm^−1"
same,singlet oxygen yield,[2],25%
COc1c(NC2CCCCC2C(=O)O)c2c(=O)cc(OC)c3c4c(OC)cc(=O)c5c(O)c(NC6CCCCC6C(=O)O)c6c(c(c1C(C(C)=O)C(C)=C6)c23)c54 (stereo not drawn) [HB-16b],maximum absorption wavelength,[1],625 nm
same,molar extinction coefficient,[1],"26,000 M^−1cm^−1"
same,singlet oxygen yield,[2],26%
COc1c(O)c2c(=O)cc(OC)c3c4c(OC)cc(=O)c5c(NC(CO)C(=O)O)c(NC(CO)C(=O)O)c6c(c(c1C(C(C)=O)C(C)=C6)c23)c54 (stereo not drawn) [HB-23a],maximum absorption wavelength,[1],625 nm
same,molar extinction coefficient,[1],"21,500 M^−1cm^−1"
same,singlet oxygen yield,[2],20%
COCCOCCC(=O)OCCOCCNc1c2c3c4c(c(OC)c(=O)c5c(O)cc(OC)c(c6c(OC)cc(NCCOCCOC(=O)CCOCCOC)c(c1=O)c63)c54)CC(C)=C2 [HC-1c-PEG1],maximum absorption wavelength,[1],625 nm
same,molar extinction coefficient,[1],"32,500 M^−1cm^−1"
same,singlet oxygen yield,[2],34%
COCCOCCOCCOCCOCCOCCOCCOCCOCCOCCOCCOCCOCCOCCOCCOCCOC(=O)C1CCC(CNc2c3c4c5c(c(OC)c(=O)c6c(NCC7CCC(C(=O)OCCOCCOCCOCCOCCOCCOCCOCCOCCOCCOCCOCCOCCOCCOCCOCCOC)CC7)cc(OC)c(c7c(OC)cc(O)c(c2=O)c74)c65)CC(C)=C3)CC1 (stereo not drawn) [HC-13d-PEG16],maximum absorption wavelength,[1],625 nm
same,molar extinction coefficient,[1],"31,500 M^−1cm^−1"
same,singlet oxygen yield,[2],30%
COC(=O)C(CO)Nc1c(NC(CO)C(=O)OC)c2c(=O)cc(OC)c3c4c(OC)cc(=O)c5c(O)c(OC)c6c(c(c1C=C(C)C6C(C)=O)c23)c54 (stereo not drawn) [HB-24a],maximum absorption wavelength,[1],625 nm
same,molar extinction coefficient,[1],"20,500 M^−1cm^−1"
same,singlet oxygen yield,[2],20%
COCCOC(=O)C1CCC(Nc2c(NC3CCC(C(=O)OCCOC)C3)c3c(=O)cc(OC)c4c5c(OC)cc(=O)c6c(O)c(OC)c7c(c(c2C=C(C)C7C(C)=O)c34)c65)C1 (stereo not drawn) [HB-19a-PEG1],maximum absorption wavelength,[1],624 nm
same,molar extinction coefficient,[1],"30,500 M^−1cm^−1"
same,singlet oxygen yield,[2],32%
COCCOCCC(=O)OC1CCC(Nc2c(NC3CCC(OC(=O)CCOCCOC)C3)c3c(=O)cc(OC)c4c5c(OC)cc(=O)c6c(O)c(OC)c7c(c(c2C=C(C)C7C(C)=O)c34)c65)C1 (stereo not drawn) [HB-20a-PEG1],maximum absorption wavelength,[1],624 nm
same,molar extinction coefficient,[1],"31,000 M^−1cm^−1"
same,singlet oxygen yield,[2],30%
